Experimental findings from patent US9078859B2, “Use of a synergistic combination of hypothiocyanite and/or hypohalite ions and lactoferrin for preparing a treatment for cystic fibrosis” (ALAXIA, priority 2009, dated 2015) are described below.

Each structure is given as a SMILES string.

Format in all cases: cell-based
Assay [1] concerns mucoid strain of Pseudomonas aeruginosa. Put plainly: in vitro contact-time test on a mucoid strain of Pseudomonas aeruginosa. The method, then:
(§1) The solution from the example was tested in vitro on a mucoid strain of Pseudomonas aeruginosa, Burkholderia cepacia and Methicillin Resistant Staphylococcus Aureus.

Assay [2] deals with Methicillin Resistant Staphylococcus aureus (MRSA). Put plainly: in vitro contact-time test on MRSA. As for the experimental part:
as §1
Methicillin Resistant Staphylococcus aureus (MRSA)

In the next assay the test system is Burkholderia cepacia. Nature of the assay: in vitro contact-time test on Burkholderia cepacia. The method, then: as §1
Burkholderia cenocepacia J2315 (ATCC BAA 245 known to be resistant to Tobramycin and Colistin (Holden 2009, Soiza 2004)), derived from patients with cystic fibrosis.

For the molecule `N#CSO` [500 μM OSCN, hypothiocyanite], the bacterial count in assay [1] (contact time 0 hours) turned out to be 4.14 log CFU/ml; in assay [1] (contact time 0.5 hours), 3.23 log CFU/ml; in assay [1] (contact time 1 hour), 3.16 log CFU/ml; in assay [1] (contact time 2 hours), 2.98 log CFU/ml; in assay [1] (contact time 4 hours) it was 2.08 log CFU/ml; in assay [1] (contact time 6 hours), 1.90 log CFU/ml. The bacterial count was 1.78 log CFU/ml in assay [1] (contact time 24 hours); 4.15 log CFU/ml in assay [2] (contact time 0 hours); 3.80 log CFU/ml in assay [2] (contact time 0.5 hours); 3.70 log CFU/ml in assay [2] (contact time 1 hour); 3.33 log CFU/ml in assay [2] (contact time 2 hours); 2.89 log CFU/ml in assay [2] (contact time 4 hours). Besides, the bacterial count was found to be 2.25 log CFU/ml in assay [2] (contact time 6 hours); 1.97 log CFU/ml in assay [2] (contact time 24 hours); 4.41 log CFU/ml in the assay on Burkholderia cepacia (contact time 0 hours); 3.64 log CFU/ml in the assay on Burkholderia cepacia (contact time 0.5 hours); 3.56 log CFU/ml with Burkholderia cepacia (contact time 1 hour); 3.03 log CFU/ml in the assay with Burkholderia cepacia (contact time 2 hours). In addition, the figures for the bacterial count with Burkholderia cepacia (contact time 4 hours), with Burkholderia cepacia (contact time 6 hours) and with Burkholderia cepacia (contact time 24 hours) were 2.08 log CFU/ml, 1.98 log CFU/ml and 1.78 log CFU/ml, respectively.
